Measured values as given in a melting point compilation (Tetko et al.; mined from patent text by program, amines drawn as free bases though some values may be those of a salt).

| Compound | melting point |
| --- | --- |
| O=C(O)C1CC(=O)N(c2ccccc2)N1 (stereo not drawn) | 197 to 199 °C |
| C#Cc1ccc(N)nc1 | 143 °C |
| OC12CC3CC(O)(C1)CC(O)(C3)C2 | 217 °C |
| CCC12CCC(=O)C=C1c1c(cc(OCC(=O)O)c(Cl)c1Cl)C2 (stereo not drawn) | 237 to 238 °C |
| Cn1c(=O)[nH]c2ncccc2c1=O | 272 to 274 °C |
| CN(C)Cc1cnc2n1-c1ccc(Br)cc1C(c1ccccn1)=NC2 | 200 to 202 °C |
| CC1(C)CC(NC(=O)c2cc(C(C)(C)C)c(O)c(C(C)(C)C)c2)CC(C)(C)N1 | 256 to 258 °C |
| CCCCCCCCCCCCCCCCCCS(=O)(=O)c1cc(C(=O)OC)c([N+](=O)[O-])c(C(=O)OC)c1 | 98 to 100 °C |
| CN(C)CCCCCC(=O)O | 89 to 91 °C |
| O=C1OC(O)c2c(Cl)cccc21 (stereo not drawn) | 120 to 122 °C |
| Nc1c(Cl)cc(Nc2ncnc3cnc(N[C@H]4CC[C@H](C(=O)O)CC4)nc23)cc1Cl | 339 °C |
| N=C(NC1CC1)N[N+](=O)[O-] | 127 to 130 °C |
| Nc1cc(I)c(-c2cc([N+](=O)[O-])c(N)cc2I)cc1[N+](=O)[O-] | 346 to 348 °C |
| COc1ccc(Nc2ccc(C)cc2)cc1 | 81 to 82 °C |
| Cc1cc(Oc2cc(C)c([N+](=O)[O-])cn2)n[nH]1 | 136 to 139 °C |
| O=C1CN2CCOC2(c2ccccc2F)c2cc(Cl)ccc2N1 (stereo not drawn) | 183 to 184 °C |
| CN1CCC2=C(C=CCC2)C(N)C1=O (stereo not drawn) | 69 to 81 °C |
| CCCCCCCCCCCCCCCCCC(=O)N1CC(O)C1 | 86 to 87.5 °C |
| CN(C(=O)OC(C)(C)C)C1C2CCC1CN(CC(O)COc1ccc(C#N)cc1)C2 (stereo not drawn) | 109 to 112 °C |
| O=C1c2ccccc2C(Nc2ccccn2)N1CCCN1CC=C(c2ccccc2)CC1 (stereo not drawn) | 153 °C |
| CCOC(=O)c1cc2ccnc(Cl)c2[nH]1 | 152 to 157 °C |
| COc1cc(OC)c2c(c1)OC(C(C)(C)C#N)CC2=O (stereo not drawn) | 170 °C |
| COc1ccc(Cl)cc1-c1c(N)c(=O)[nH]c2cc(Cl)c(Cl)cc12 | > 300 °C |
| N#CCCCC(N)=NO | 99.5 to 101 °C |
| C=CCNC(=O)CCCC(=O)O | 35.1 °C |
| Cc1csc2[nH]c(=O)c(=O)[nH]c12 | > 320 °C |
| Nc1ccc(Oc2ncc(Cl)cn2)cc1 | 125 °C |
| CC(C)(C)OC(=O)Nc1ccsc1CC(=O)O | 70 to 72 °C |
| O=c1nc(-c2ccc3c(c2)OCO3)c2cc3c(cc2[nH]1)OCO3 | > 300 °C |

Second part, the molecule after the results:

| melting point | Compound |
| --- | --- |
| 105 to 106 °C | CCOC(=O)/C=C/c1cn(-c2ccccc2)nc1OCc1ccccc1 |
| 139 to 140 °C | O=C1CC(c2ccccc2)Oc2cc(OCCn3ccnc3)ccc21 (stereo not drawn) |
| 53.5 to 54.5 °C | CCC(=O)Oc1ccc(C(=O)c2ccccc2)cc1 |
| 100 °C | CCCCOC(=O)Nc1cccc(NC(=O)C=C(C)OC)c1 |
| 159 to 161 °C | COc1ccc(-c2c(C(=O)CC(C)C)c(CBr)nc3cc(OC)c(OC)cc23)cc1OC |
| 211 °C | COc1cccc(OC)c1-c1cc(C(=O)NC2(C(=O)O)C3CC4CC(C3)CC2C4)nn1-c1ccc(CNC(C)=O)c2ccccc12 (stereo not drawn) |
| 137 to 138 °C | O=C(CC(Cc1ccccc1)C(=O)O)c1ccc(Cl)cc1 (racemic) |
| 170 to 171 °C | CCc1ccc(-c2c(Cl)c(CN3C(=O)CCC3=O)nc3sc4c(c23)CCN(C(=O)OCc2ccccc2)C4)cc1 |
| 247 °C | NS(=O)(=O)c1cccc(-c2cc(-c3nc(-c4ccc(Cl)c(Cl)c4)cc(C(F)(F)F)n3)ccn2)c1 |
| 157 to 160 °C | O=C1C(CCO)Oc2cc([N+](=O)[O-])ccc2N1Cc1cccc([N+](=O)[O-])c1 (stereo not drawn) |
| 64 to 65 °C | CCOC(=NC(=O)c1ccccc1C(F)(F)F)c1ccccc1Cl |
| 178 to 180 °C | COc1ccccc1[C@H](c1cccc2ccccc12)[C@@](C)(C#N)C(=O)N1CCN(c2ccc(Cl)cc2)CC1 |
| 200 °C | CNC(=O)Nc1ccc2c(c1)C(C)(N)c1c-2[nH]c(=O)c2nccn12 (stereo not drawn) |
| 78 °C | C=Cc1ccc(OC(C)C)c(OCCN2C(=O)c3ccccc3C2=O)c1 |
| 265 °C | Fc1ccc(-c2cc(C(F)(F)F)n3ncc(-c4ccncc4)c3n2)cc1Cl |
| > 300 °C | Nc1nc2ccccc2c2c1ncn2Cc1ccncc1 |
| 110 to 112 °C | CCOc1cccc(N2CCN(CCCCOc3ccc4c(n3)NC(=O)CC4)CC2)c1Cl |
| 203 to 208 °C | Cc1nccn1-c1cc(NC(=O)OC(C)(C)C)cc(C(F)(F)F)c1 |
| 158 to 160 °C | CC(=O)NC[C@H]1CN(c2ccc(N3CCC(F)(CCl)CC3)c(F)c2)C(=O)O1 |
| 148 to 150 °C | COc1cc(C(=O)N2CCC3(CC2)Cc2ccccc2O3)cc(OC)c1OC |
| 264 to 265 °C | CCc1cn2ccc(NC(=O)c3cc4cc(C(F)(F)F)cnc4n3Cc3cccc(F)c3)cc2n1 |
| 218 to 220 °C | CC1(C#CC2(C(F)(F)F)c3cc(Cl)ccc3NC(=O)N2C2CC2)CC1 (stereo not drawn) |

| melting point | Compound |
| --- | --- |
| 160 to 161 °C | O=S1(=O)c2ccc(F)cc2Oc2cc(OCC(F)(F)F)ccc21 |
| 121 to 122 °C | O=C(O)Cc1cc(-c2ccccc2)sc1NC(=O)c1ccccc1 |
| 60 to 61 °C | Nc1c(Cl)cc(C(O)CNCCCCCC(=O)OCCc2cccc3ccccc23)cc1Cl (stereo not drawn) |
| 72 to 74 °C | NS(=O)(=O)Oc1cccc(C(=O)c2ccccc2)c1 |
| 155 to 158 °C | Cc1cccc(C(=O)c2ccc(O)cc2)c1C |
| 156 to 158 °C | Cc1c(C)c2c(c(C)c1NC(=O)c1ccc(F)cc1)C(c1ccccc1)C(C)(C)O2 (stereo not drawn) |
| 162 °C | COc1cc(C2=C(c3c[nH]c4ncccc34)C(=O)NC2=O)cc(OC)c1OC |
| 104 to 106 °C | O=C1C(CCO)Oc2ccccc2N1Cc1cc(Cl)cc(Cl)c1 (stereo not drawn) |
| 180 to 184 °C | CC(C)(C)OC(=O)NC[C@H]1CN(c2ccc3c(c2)CCCc2cnoc2-3)C(=O)O1 |
| 289 to 290 °C | COc1cc(OC)cc(-c2nc3ccc(Nc4ccncc4)cc3c(=O)[nH]2)c1 |
| 85 to 86 °C | COC(=O)c1coc2cc(Oc3cc(COCc4ccccc4)ncn3)ccc12 |
| 127 to 130 °C | Cc1cc(C)nc(Sc2ccnc3cc(Cl)ccc23)n1 |
| 178 to 182 °C | O=C1c2ccccc2C(=O)N1CC(=O)N1c2ccccc2N(Cc2ccc(NCc3ccccc3)cc2)C(=O)[C@H]2CCC[C@H]21 (relative stereo) |
| 65 to 67 °C | COC(=O)COc1cc(C(F)(F)F)cc(C(F)(F)F)c1 |
| 217 to 222 °C | Cn1ccnc1Sc1ccc(Nc2c(C#N)cnc3cc(/C=C/CCCN4CCCC4)ccc23)cc1Cl |
| 78 to 79 °C | CCCCCCCCCCOc1cnc(-c2ccc(CCCCCC(C)O)cc2)nc1 (stereo not drawn) |
| 102 to 104 °C | CC[C@@H](c1ccccc1)N(Cc1ccc(C(=O)O)cc1)S(=O)(=O)c1ccc(C(=O)O)cc1 |
| 173 to 174 °C | COC(=O)c1ccc(NC(=O)c2ccc(Br)nc2)nc1 |
| 344 to 347 °C | Nc1c(-c2cc(Cl)ccc2O)c2cc([N+](=O)[O-])ccc2[nH]c1=O |
| 218 °C | O=C(CCN1CCNCC1)Nc1ccc2c(c1)C(=O)c1cc(NC(=O)CCN3CCNCC3)ccc1C2=O |
| 188 to 190 °C | Oc1ccc(Nc2nc(Cl)nc(NCc3ccco3)n2)cc1 |
| 166 to 168 °C | CNc1cccc(S(=O)(=O)NC(=O)Nc2nc(OC)cc(OC)n2)n1 |
